Where a name gives a salt, the structure may show the parent alone.
Legend:
[1] = target: T1, recombinant human LTA4 hydrolase (rhLTA4H) (Homo sapiens, UniProt P09960); assay: Recombinant human LTA4 hydrolase assay for LTA4 hydrolase inhibitor activity; assay type: biochemical; settings: rhLTA4H, LTB4 by immunoassay; single determination or average of two or more; mark after value = form tested: ′ free base, ″ hydrochloride, ^ formate; read-out: IC50
T1 construct: made in house; host or cells: Spodoptera frugiperda (Sf-9) cells, baculovirus (pFastBac1)
T1 sequence (P09960 1-611): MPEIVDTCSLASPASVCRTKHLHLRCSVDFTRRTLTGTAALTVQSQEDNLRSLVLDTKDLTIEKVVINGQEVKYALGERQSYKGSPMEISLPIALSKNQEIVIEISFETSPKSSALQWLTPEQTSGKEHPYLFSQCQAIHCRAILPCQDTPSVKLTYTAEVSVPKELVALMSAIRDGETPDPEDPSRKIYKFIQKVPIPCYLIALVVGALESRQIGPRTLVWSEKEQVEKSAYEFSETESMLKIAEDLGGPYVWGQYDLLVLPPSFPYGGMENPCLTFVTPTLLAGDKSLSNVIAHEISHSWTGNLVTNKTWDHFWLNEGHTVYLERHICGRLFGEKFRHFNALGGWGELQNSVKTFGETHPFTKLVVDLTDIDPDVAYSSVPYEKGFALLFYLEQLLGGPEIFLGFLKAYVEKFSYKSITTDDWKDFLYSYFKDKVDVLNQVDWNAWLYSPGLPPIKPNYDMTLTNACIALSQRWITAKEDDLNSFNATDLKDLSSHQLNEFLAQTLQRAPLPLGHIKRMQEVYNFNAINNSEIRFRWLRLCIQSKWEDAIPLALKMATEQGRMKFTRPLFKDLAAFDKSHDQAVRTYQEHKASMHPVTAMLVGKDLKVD
Method in brief: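 LTB4 formation, measured by enzyme immunoassay, was the read-out. The enzyme, recombinant human LTA4H expressed in Sf-9 insect cells (10 ng per reaction), was exposed to compound for 10 min at room temperature before hydrolysed-ester LTA4 substrate was added for 30 min. Enzyme-free negatives were included.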

[2] = test system: LTB4 production in murine blood (LTA4H); assay: LTB4 production by calcium ionophore-stimulated murine blood for LTA4H inhibitor activity; assay type: cell-based, CD-1 mice; settings: Mus musculus; murine blood diluted 1 in 15, A23187 stimulated; single determination or average; mark after value = form tested: ′ free base, ″ hydrochloride, ^ formate; read-out: IC50
Method in brief: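 LTB4 was measured by ELISA in supernatants after calcium ionophore A23187 stimulation (final 7 μg/mL, 30 min, 37° C) of CD-1 mouse blood collected on heparin. Compound was preincubated with the blood for 15 min beforehand. Values come from one determination or average several.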

| Compound | IC50 [1] [µM] | IC50 [2] [µM] |
| --- | --- | --- |
| c1csc(CN2CCN(Cc3coc4cc(Oc5nc6ncccc6s5)ccc34)CC2)c1 [Example 325, 2-[3-(4-Thiophen-2-ylmethyl-piperazin-1-ylmethyl)-benzofuran-6-yloxy]-thiazolo[4,5-b]pyridine] | 0.026 | 0.078 |
| c1ccc2c(c1)CN(Cc1coc3cc(Oc4nc5ncccc5s4)ccc13)C2 [Example 331, 2-[3-(1,3-Dihydro-isoindol-2-ylmethyl)-benzofuran-6-yloxy]-thiazolo[4,5-b]pyridine] | 0.054 | 1.06 |
| CC(=O)N1[C@@H]2CC[C@H]1C[C@@H](NCc1coc3cc(Oc4nc5ncccc5s4)ccc13)C2 [Example 332, meso-endo-1-(3-{[6-(Thiazolo[4,5-b]pyridin-2-yloxy)-benzofuran-3-ylmethyl]-amino}-8-aza-bicyclo[3.2.1]oct-8-yl)-ethanone formate] | 0.008 | 0.1 |
| CC(=O)N1[C@@H]2CC[C@H]1C[C@H](NCc1coc3cc(Oc4nc5ncccc5s4)ccc13)C2 [Example 333, meso-exo-1-(3-{[6-(Thiazolo[4,5-b]pyridin-2-yloxy)-benzofuran-3-ylmethyl]-amino}-8-aza-bicyclo[3.2.1]oct-8-yl)-ethanone formate] | 0.006 | 0.024 |
| CN(CCC(=O)O)Cc1coc2cc(Oc3nc4ncccc4s3)ccc12 [Example 335, 3-{Methyl-[6-(thiazolo[4,5-b]pyridin-2-yloxy)-benzofuran-3-ylmethyl]-amino}-propionic acid formate] | 0.005 | 0.2 |
| CC(=O)N1C[C@H]2C[C@@H]1CN2Cc1cc2ncc(Oc3nc4ncccc4s3)cc2o1 [Example 340, (1R,4R)-1-{5-[6-(Thiazolo[4,5-b]pyridin-2-yloxy)-furo[3,2-b]pyridin-2-ylmethyl]-2,5-diaza-bicyclo[2.2.1]hept-2-yl}-ethanone formate] | 0.012 | 0.61 |
| c1ccc(CNCc2coc3cc(Oc4nc5ncccc5s4)ccc23)cc1 [Example 344, Benzyl-[6-(thiazolo[4,5-b]pyridin-2-yloxy)-benzofuran-3-ylmethyl]-amine] | 0.021 | 0.1 |
| Fc1ccc(CNCc2coc3cc(Oc4nc5ncccc5s4)ccc23)cc1 [Example 345, (4-Fluoro-benzyl)-[6-(thiazolo[4,5-b]pyridin-2-yloxy)-benzofuran-3-ylmethyl]-amine] | 0.007 | 0.072 |
| OC1(c2ccc(Cl)cc2)CCN(Cc2coc3cc(Oc4nc5ncccc5s4)ccc23)CC1 [Example 347, 4-(4-Chloro-phenyl)-1-[6-(thiazolo[4,5-b]pyridin-2-yloxy)-benzofuran-3-ylmethyl]-piperidin-4-ol] | 0.024 | 0.13 |
| OC1(c2ccc(Br)cc2)CCN(Cc2coc3cc(Oc4nc5ncccc5s4)ccc23)CC1 [Example 348, 4-(4-Bromo-phenyl)-1-[6-(thiazolo[4,5-b]pyridin-2-yloxy)-benzofuran-3-ylmethyl]-piperidin-4-ol] | 0.067 | 0.36 |
| O=C(C1CCOC1)N1CC2CN(Cc3coc4cc(Oc5nc6ncccc6s5)ccc34)CC2C1 (stereo not drawn) [Example 354, (Tetrahydro-furan-3-yl)-{5-[6-(thiazolo[4,5-b]pyridin-2-yloxy)-benzofuran-3-ylmethyl]-hexahydro-pyrrolo[3,4-c]pyrrol-2-yl}-methanone] | 0.007 | 0.2 |
| O=C(c1cnccn1)N1C[C@@H]2C[C@H]1CN2Cc1coc2cc(Oc3nc4ncccc4s3)ccc12 [Example 356, (1S,4S)-Pyrazin-2-yl-{5-[6-(thiazolo[4,5-b]pyridin-2-yloxy)-benzofuran-3-ylmethyl]-2,5-diaza-bicyclo[2.2.1]hept-2-yl}-methanone] | 0.018 | 0.26 |

Second part, the molecule after the results:

| IC50 [1] [µM] | IC50 [2] [µM] | Compound |
| --- | --- | --- |
| 0.008 | 0.016 | CC(=O)N[C@@H]1CCN(Cc2coc3cc(Oc4nc5ncccc5s4)ccc23)C1 [Example 324, (R)—N-{1-[6-(Thiazolo[4,5-b]pyridin-2-yloxy)-benzofuran-3-ylmethyl]-pyrrolidin-3-yl}-acetamide] |
| 0.021 | 0.12 | c1cnc2nc(Oc3ccc4c(CN5CCN6CCCC6C5)coc4c3)sc2c1 (stereo not drawn) [Example 326, 2-[3-(Hexahydro-pyrrolo[1,2-a]pyrazin-2-ylmethyl)-benzofuran-6-yloxy]-thiazolo[4,5-b]pyridine] |
| 0.029 | 0.13 | CCN(CC)C1CCN(Cc2coc3cc(Oc4nc5ncccc5s4)ccc23)C1 (stereo not drawn) [Example 327, Diethyl-{1-[6-(thiazolo[4,5-b]pyridin-2-yloxy)-benzofuran-3-ylmethyl]-pyrrolidin-3-yl}-amine] |
| 0.012 | 0.093 | F[C@@H]1CCN(Cc2coc3cc(Oc4nc5ncccc5s4)ccc23)C1 [Example 328, (R)-2-[3-(3-Fluoro-pyrrolidin-1-ylmethyl)-benzofuran-6-yloxy]-thiazolo[4,5-b]pyridine] |
| 0.054 | 1.04 | Fc1ccc2c(c1)CN(Cc1coc3cc(Oc4nc5ncccc5s4)ccc13)C2 [Example 330, 2-[3-(5-Fluoro-1,3-dihydro-isoindol-2-ylmethyl)-benzofuran-6-yloxy]-thiazolo[4,5-b]pyridine] |
| 0.016 | 0.23 | O=C1CN(Cc2coc3cc(Oc4nc5ncccc5s4)ccc23)CCN1 [Example 342, 4-[6-(Thiazolo[4,5-b]pyridin-2-yloxy)-benzofuran-3-ylmethyl]-piperazin-2-one] |
| 0.026 | 0.86 | CC1CN(Cc2coc3cc(Oc4nc5ncccc5s4)ccc23)CC(C)O1 (stereo not drawn) [Example 349, 2-[3-(2,6-Dimethyl-morpholin-4-ylmethyl)-benzofuran-6-yloxy]-thiazolo[4,5-b]pyridine] |
| 0.026 | 0.038 | FC1CCCN(Cc2coc3cc(Oc4nc5ncccc5s4)ccc23)C1 (stereo not drawn) [Example 350, 2-[3-(3-Fluoro-piperidin-1-ylmethyl)-benzofuran-6-yloxy]-thiazolo[4,5-b]pyridine] |
| 0.002 | 0.094 | O=c1[nH]ncn1C1CCN(Cc2coc3cc(Oc4nc5ncccc5s4)ccc23)CC1 [Example 351, 4-{1-[6-(Thiazolo[4,5-b]pyridin-2-yloxy)-benzofuran-3-ylmethyl]-piperidin-4-yl}-2,4-dihydro-[1,2,4]triazol-3-one] |
| 0.05 | 0.11 | CC(=O)N1CC2CC(CN(Cc3coc4cc(Oc5nc6ncccc6s5)ccc34)C2)C1 [Example 352, 1-{7-[6-(Thiazolo[4,5-b]pyridin-2-yloxy)-benzofuran-3-ylmethyl]-3,7-diaza-bicyclo[3.3.1]non-3-yl}-ethanone] |
| 0.006 | 0.022 | CCN(C(C)=O)C1CCN(Cc2coc3cc(Oc4nc5ncccc5s4)ccc23)CC1 [Example 353, N-Ethyl-N-{1-[6-(thiazolo[4,5-b]pyridin-2-yloxy)-benzofuran-3-ylmethyl]-piperidin-4-yl}-acetamide] |
| 0.003 | 0.068 | O=C(CO)N1CC2CN(Cc3coc4cc(Oc5nc6ncccc6s5)ccc34)CC2C1 (stereo not drawn) [Example 355, 2-Hydroxy-1-{5-[6-(thiazolo[4,5-b]pyridin-2-yloxy)-benzofuran-3-ylmethyl]-hexahydro-pyrrolo[3,4-c]pyrrol-2-yl}-ethanone] |
